Data: patent publication US20210040089A1, “KRAS MUTANT PROTEIN INHIBITORS” (Jacobio Pharmaceuticals Co., Ltd., priority 2019, published 2021)

Assays:
[1] = system: NCI-H358 cells express KRAS G12C; experiment: Cell growth inhibition assay (CCK-8); type: cell-based; conditions: Homo sapiens, 144 h; NCI-H358, 6 days incubation
How it was run: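 Antiproliferative read-out: KRAS G12C-mutant NCI-H358 lung cancer cells (3000/well) exposed to compounds in RPMI 1640 with 10% FBS for 6 days at 37°C. Viability by CCK-8 (OD450) after 1.5-2 h; IC50 from 4-parameter logistic fit.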

KRAS G12C = biological target: T1, KRAS G12C (Homo sapiens, UniProt P01116, G12C); experiment: SOS1 catalyzed nucleotide exchange assay (TR-FRET); type: biochemical; conditions: GDP-loaded HIS-KRAS(G12C), 1 hour pre-incubation with compound
T1 construct: HIS-KRAS (G12C, aa 2-185, Sino biological); purchased Sino biological
How it was run: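 EDTA-stripped, GDP-loaded His-KRAS G12C (aa 2-185; 3 nM final) preincubated 1 h with compound, then SOS1 ExD (aa 564-1049; 2 μM) and BODIPY-FL GTP (80 nM) added for 4 h at 25 °C. TR-FRET via anti-His Tb cryptate (515/486 nm ratio); IC50 from 4-parameter logistic fit.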

[2] = system: Phospho-ERK1/2(THR202/TYR204) in NCI-H358 cells express KRAS G12C; experiment: Phospho-ERK1/2(THR202/TYR204) HTRF assay; type: cell-based; conditions: Homo sapiens; NCI-H358, 2 hours incubation; read-out: p-ERK inhibition in NCI-H358 IC50
How it was run: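 Compounds applied to attached cells for 2 h at 37 °C in RPMI 1640 with 0.1% FBS. Lysate phospho-ERK1/2 detected by HTRF after 4 h antibody incubation at 25 °C; IC50 from 4-parameter logistic fit.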

T1 sequence (P01116 2-185 isoform P01116-2 G12C): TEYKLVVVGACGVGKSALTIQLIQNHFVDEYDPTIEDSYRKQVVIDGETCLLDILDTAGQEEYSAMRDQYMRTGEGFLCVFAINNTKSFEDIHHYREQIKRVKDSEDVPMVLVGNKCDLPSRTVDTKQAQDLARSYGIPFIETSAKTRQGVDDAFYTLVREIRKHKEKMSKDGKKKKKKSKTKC

Row | Compound | IC50 [1] | IC50 (KRAS G12C) | IC50 [2]
1 | C/C=C/C(=O)N1CCN(c2nc(OCC3(CN4CCCC4)CC3)nc3c2CCN(c2cccc4cccc(C)c24)C3)CC1CC#N (stereo not drawn) [Compound 74, (E)-2-(1-(but-2-enoyl)-4-(7-(8-methylnaphthalen-1-yl)-2-((1-(pyrrolidin-1-ylmethyl)cyclopropyl)methoxy)-5,6,7,8-tetrahydropyrido[3,4-d]pyrimidin-4-yl)piperazin-2-yl)acetonitrile] | 1.52 µM | 0.0668 µM | > 0.5 µM
2 | C=C(F)C(=O)N1CCN(c2nc(OCC3(CN4CC(N(C)C)C4)CC3)nc3c2CCN(c2cccc4cccc(C)c24)C3)CC1CC#N (stereo not drawn) [Compound 75, 2-(4-(2-((1-((3-(dimethylamino)azetidin-1-yl)methyl)cyclopropyl)methoxy)-7-(8-methylnaphthalen-1-yl)-5,6,7,8-tetrahydropyrido[3,4-d]pyrimidin-4-yl)-1-(2-fluoroacryloyl)piperazin-2-yl)acetonitrile] | 0.235 µM | 0.00727 µM | 0.405 µM
3 | C=C(F)C(=O)N1CCN(c2nc(OCC3(CN(CC)CC)CC3)nc3c2CCN(c2cccc4cccc(C)c24)C3)CC1CC#N (stereo not drawn) [Compound 76, 2-(4-(2-((1-((diethylamino)methyl)cyclopropyl)methoxy)-7-(8-methylnaphthalen-1-yl)-5,6,7,8-tetrahydropyrido[3,4-d]pyrimidin-4-yl)-1-(2-fluoroacryloyl)piperazin-2-yl)acetonitrile] | 0.421 µM | 0.0117 µM | 0.354 µM
4 | Cc1cccc2cccc(N3CCc4c(nc(OCC5(CN(C)C)CC5)nc4N4CCN(C(=O)/C=C/CF)C(CC#N)C4)C3)c12 (stereo not drawn) [Compound 77, (E)-2-(4-(2-((1-((dimethylamino)methyl)cyclopropyl)methoxy)-7-(8-methylnaphthalen-1-yl)-5,6,7,8-tetrahydropyrido[3,4-d]pyrimidin-4-yl)-1-(4-fluorobut-2-enoyl)piperazin-2-yl)acetonitrile] | 0.029 µM | 0.00124 µM | 0.0593 µM
5 | C=C(F)C(=O)N1CCN(c2nc(OCC3(CN(C)C)CC3)nc3c2CCN(c2cccc4cccc(C)c24)C3)CC1CC#N (stereo not drawn) [Compound 78, 2-(4-(2-((1-((dimethylamino)methyl)cyclopropyl)methoxy)-7-(8-methylnaphthalen-1-yl)-5,6,7,8-tetrahydropyrido[3,4-d]pyrimidin-4-yl)-1-(2-fluoroacryloyl)piperazin-2-yl)acetonitrile] | 0.208 µM | 0.00836 µM | 0.208 µM
6 | C=C(F)C(=O)N1CCN(c2nc(OCC3(CN(C)C)CC3)nc3c2CCN(c2cccc4cccc(Cl)c24)C3)CC1CC#N (stereo not drawn) [Compound 79, 2-(4-(7-(8-chloronaphthalen-1-yl)-2-((1-((dimethylamino)methyl)cyclopropyl)methoxy)-5,6,7,8-tetrahydropyrido[3,4-d]pyrimidin-4-yl)-1-(2-fluoroacryloyl)piperazin-2-yl)acetonitrile] | 0.239 µM | 0.00603 µM | 0.439 µM
7 | CN(C)CC1(COc2nc3c(c(N4CCN(C(=O)/C=C/CF)[C@@H](CC#N)C4)n2)CCN(c2cccc4cccc(Cl)c24)C3)CC1 [Compound 84, (S,E)-2-(4-(7-(8-chloronaphthalen-1-yl)-2-((1-((dimethylamino)methyl)cyclopropyl)methoxy)-5,6,7,8-tetrahydropyrido[3,4-d]pyrimidin-4-yl)-1-(4-fluorobut-2-enoyl)piperazin-2-yl)acetonitrile] | 0.0243 µM | 0.00158 µM | 0.0802 µM
8 | Cc1cccc2cccc(N3CCc4c(nc(OCC5(CN(C)C)CC5)nc4N4CCN(C(=O)/C=C/CN(C)C)C(CC#N)C4)C3)c12 (stereo not drawn) [Compound 85, (E)-2-(1-(4-(dimethylamino)but-2-enoyl)-4-(2-((1-((dimethylamino)methyl)cyclopropyl)methoxy)-7-(8-methylnaphthalen-1-yl)-5,6,7,8-tetrahydropyrido[3,4-d]pyrimidin-4-yl)piperazin-2-yl)acetonitrile] | 0.132 µM | 0.00286 µM | 0.153 µM
